Reference: the supplement of paper PMC10307832

How the values were obtained:
Assay in all cases: relative viability (nuclei count vs DMSO), 5 days (fraction); higher = more cells survive
[1] = compound: C1=CC(=CC=C1NC(=S)NNC2=C(C=C(C=C2[N+](=O)[O-])C(F)(F)F)[N+](=O)[O-])F [Kobe2602] + C[C@@H](Oc1cc(-c2cnn(C3CCNCC3)c2)cnc1N)c1c(Cl)ccc(F)c1Cl [Crizotinib] (partner 1 µM)
Summary of the method: (§1)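 A single step with final 0.05% Triton X-100, 1% formaldehyde and 1 ug/ml Hoechst fixed the cells and stained nuclei 5 days after treatment. Lung cancer cell lines in 1536-well plates had been treated by pin tool the day after seeding with one drug alone or a fixed anchor-drug dose plus five library-drug doses (not always all listed) in √10 steps, and nuclei were counted on 4× images. Relative viability is the ratio of nuclei in treated wells to nuclei in vehicle wells, taken as the median of duplicate plates.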

[2] = compound: COc1cc2nccc(Oc3ccc(NC(=O)C4(C(=O)Nc5ccc(F)cc5)CC4)cc3)c2cc1OC [Cabozantinib] + CC(=O)c1c(C)c2cnc(Nc3ccc(N4CCNCC4)cn3)nc2n(C2CCCC2)c1=O [Palbociclib] (partner 0.5 µM)
Summary of the method: as §1

[3] = compound: O[C@@H](COc1cccc2ncccc12)CN1CCN([C@@H]2c3ccccc3[C@@H]3[C@H](c4ccccc42)C3(F)F)CC1 [Zosuquidar] + O=C(CCCCCCC(=O)Nc1ccccc1)NO [Vorinostat] (partner 1 µM)
Summary of the method: as §1

Row | Cell Line | relative viability ([1]; first compound 0.2 µM) | relative viability ([1]; first compound 0.6325 µM) | relative viability ([1]; first compound 2 µM) | relative viability ([1]; first compound 6.325 µM) | relative viability ([1]; first compound 20 µM) | relative viability ([2]; first compound 0.02 µM) | relative viability ([2]; first compound 0.06325 µM) | relative viability ([2]; first compound 0.2 µM) | relative viability ([2]; first compound 0.6325 µM) | relative viability ([2]; first compound 2 µM) | relative viability ([3]; first compound 0.01 µM) | relative viability ([3]; first compound 0.03162 µM) | relative viability ([3]; first compound 0.1 µM) | relative viability ([3]; first compound 0.3162 µM) | relative viability ([3]; first compound 1 µM)
1 | HOP-62 | 0.803 | 0.9 | 0.961 | 0.873 | 0.962 | 0.503 | 0.488 | 0.416 | 0.506 | 0.491 | 0.528 | 0.624 | 0.585 | 0.836 | 0.593
2 | HCC-366 | 0.434 | 0.597 | 0.494 | 0.569 | 0.655 | 0.491 | 0.503 | 0.399 | 0.364 | 0.451 | 0.309 | 0.424 | 0.342 | 0.897 | 0.352
3 | NCI-H3122 | 0.262 | 0.255 | 0.254 | 0.263 | 0.266 | 0.183 | 0.179 | 0.168 | 0.192 | 0.211 | 0.984 | 1.03 | 0.894 | 1.07 | 1.07
4 | NCI-H1650 | 0.913 | 1.01 | 0.92 | 1.07 | 1.05 | 0.361 | 0.301 | 0.27 | 0.36 | 0.486 | 0.584 | 0.587 | 0.532 | 0.665 | 0.546
5 | NCI-H1355 | 1.04 | 1.12 | 0.747 | 0.952 | 0.957 | 0.423 | 0.448 | 0.389 | 0.371 | 0.379 | 0.621 | 0.644 | 0.602 | 0.652 | 0.669
6 | NCI-H2170 | 1.22 | 1.21 | 1.14 | 1.31 | 1.13 | 0.408 | 0.407 | 0.355 | 0.369 | 0.438 | 0.828 | 0.784 | 0.763 | 0.844 | 0.826
7 | NCI-H1734 | 0.71 | 0.652 | 0.604 | 0.599 | 0.735 | 0.4 | 0.339 | 0.381 | 0.389 | 0.325 | 0.764 | 0.832 | 0.883 | 0.839 | 0.887
8 | LXF-289 | 0.789 | 0.826 | 0.826 | 0.792 | 0.791 | 0.582 | 0.625 | 0.532 | 0.618 | 0.559 | 0.727 | 0.759 | 0.72 | 0.788 | 0.78
9 | SK-LU-1 | 0.94 | 0.944 | 0.965 | 1.06 | 0.924 | 0.357 | 0.486 | 0.439 | 0.344 | 0.364 | 0.828 | 0.829 | 0.839 | 0.926 | 0.761
10 | NCI-H2087 | 0.671 | 0.766 | 0.922 | 0.786 | 0.802 | 0.187 | 0.302 | 0.273 | 0.249 | 0.253 | 0.666 | 0.707 | 0.739 | 0.667 | 0.77
11 | SK-MES-1 | 0.966 | 0.964 | 0.954 | 1.04 | 1 | 0.34 | 0.305 | 0.379 | 0.39 | 0.298 | 1.03 | 1.06 | 0.929 | 1.13 | 1.18
12 | HCC-78 | 0.382 | 0.302 |  | 0.333 | 0.363 |  | 0.444 | 0.413 | 0.467 | 0.435 | 0.465 |  |  | 0.512 | 0.402
13 | NCI-H2228 | 0.484 | 0.504 | 0.441 | 0.494 | 0.585 | 0.588 | 1.08 | 0.802 | 0.941 | 0.837 | 0.972 | 0.61 | 0.935 | 0.895 | 0.869
14 | H3255 | 0.906 | 1.12 | 0.802 | 0.839 | 0.874 | 0.317 | 0.351 |  | 0.339 | 0.325 | 0.787 | 0.837 | 0.613 | 0.824 | 0.756
15 | HCC-15 | 0.747 | 0.803 | 0.727 | 0.769 | 0.752 | 0.824 | 0.797 | 0.716 | 0.718 | 0.672 | 0.844 | 0.745 | 0.716 | 0.894 | 0.877
16 | PC-14 | 0.886 | 0.927 | 0.838 | 1.02 | 0.912 | 0.511 | 0.703 |  | 0.516 | 0.417 | 0.826 | 0.673 | 0.721 | 0.831 | 0.761
17 | NCI-H2023 | 0.674 | 0.627 | 0.526 | 0.611 | 0.473 | 0.386 | 0.321 | 0.271 | 0.247 | 0.199 | 0.529 | 0.837 | 0.596 | 0.732 | 0.541
18 | HCC-44 | 0.771 | 0.697 | 0.767 | 0.783 | 0.749 | 1.04 | 1.05 | 0.998 | 0.977 | 1.03 | 1.1 | 1.18 | 1.18 | 1.12 | 1.05
19 | ChaGo-K-1 | 1.16 | 1.2 | 1.14 | 1.13 | 0.935 | 1.05 | 1.05 | 0.906 | 0.899 | 0.871 | 0.741 | 0.657 | 0.796 | 0.781 | 0.733
20 | COR-L23 | 0.656 | 0.573 | 0.647 | 0.745 | 0.7 | 0.299 | 0.295 | 0.29 | 0.391 | 0.297 | 0.493 | 0.515 | 0.472 | 0.517 | 0.509
21 | EMC-BAC-2 | 0.759 | 0.799 | 0.754 | 0.755 | 0.747 | 0.531 | 0.551 | 0.552 | 0.533 | 0.543 | 0.457 | 0.438 | 0.489 | 0.528 | 0.258
22 | LCLC-103H | 1.04 | 1.02 | 1.07 | 1.02 | 1.18 | 0.492 | 0.463 | 0.464 | 0.434 | 0.435 | 0.754 | 0.771 | 0.598 | 0.848 | 0.803
23 | NCI-H23 | 0.5 | 0.604 | 0.392 | 0.499 | 0.619 |  | 0.541 | 0.579 | 0.541 | 0.437 | 0.536 |  | 0.57 | 0.695 | 0.662
24 | NCI-H322M | 0.81 | 0.95 | 0.995 | 0.893 | 0.867 | 0.533 | 0.565 | 0.446 | 0.498 | 0.454 | 0.916 | 1.08 | 0.652 | 0.896 | 0.731
25 | NCI-H2126 | 1.01 | 1.06 | 0.962 | 1.01 | 0.912 | 0.315 | 0.37 | 0.336 | 0.364 | 0.332 | 0.768 | 0.862 | 0.478 | 0.757 | 0.891
26 | NCI-H647 | 1.2 | 1.24 | 0.887 | 1.07 | 1.03 | 0.47 | 0.456 | 0.406 | 0.335 | 0.358 | 0.623 | 0.593 | 0.667 | 0.814 | 0.518
27 | LU99A | 0.557 | 0.601 | 0.571 | 0.607 | 0.641 | 0.381 | 0.419 | 0.447 | 0.39 | 0.362 | 0.476 | 0.423 | 0.463 | 0.618 | 0.544
28 | NCI-H1666 | 0.919 | 1.01 |  | 1 | 0.746 | 0.642 | 0.658 | 0.664 | 0.662 | 0.642 | 1 | 0.868 | 1.01 | 1.04 | 1.03
